Test system: HIV in the HTLV-1 transformed cell line MT-4
Experiment: organism not typed
Type: cell-based
Details: MT4, 96 h, MT-4 cells; luciferase/cell titer glo readout after 96 hours; 10 point dose response

Structure (SMILES) | IC50 [nM]
Cc1ccc(-c2c(C)c3c(c(C)c2[C@H](OC(C)(C)C)C(=O)O)CN(C(=O)C2CCC(F)(F)CC2)C3)cc1 [Example 111, (S)-2-(tert-butoxy)-2-(2-(4,4-difluorocyclohexanecarbonyl)-4,7-dimethyl-6-(p-tolyl)isoindolin-5-yl)acetic acid] | 16
Cc1ccc(-c2c(C)c3c(c(C)c2[C@H](OC(C)(C)C)C(=O)O)CN(C(=O)C2CCCC2)C3)cc1 [Example 112, (S)-2-(tert-butoxy)-2-(2-(cyclopentanecarbonyl)-4,7-dimethyl-6-(p-tolyl)isoindolin-5-yl)acetic acid] | 29
Cc1ccc(-c2c(C)c3c(c(C)c2[C@H](OC(C)(C)C)C(=O)O)CN(C(=O)C2CCC(F)(F)C2)C3)cc1 (stereo partly drawn) [Example 113, (2S)-2-(tert-butoxy)-2-(2-(3,3-difluorocyclopentanecarbonyl)-4,7-dimethyl-6-(p-tolyl)isoindolin-5-yl)acetic acid] | 10
COc1cccc(C(=O)N2Cc3c(C)c(-c4ccc(C)cc4)c([C@H](OC(C)(C)C)C(=O)O)c(C)c3C2)c1 [Example 114, (S)-2-(tert-butoxy)-2-(2-(3-methoxybenzoyl)-4,7-dimethyl-6-(p-tolyl)isoindolin-5-yl)acetic acid] | 5
Cc1ccc(-c2c(C)c3c(c(C)c2[C@H](OC(C)(C)C)C(=O)O)CN(C(=O)c2ccc(C)c(F)c2)C3)cc1 [Example 115, (S)-2-(tert-butoxy)-2-(2-(3-fluoro-4-methylbenzoyl)-4,7-dimethyl-6-(p-tolyl)isoindolin-5-yl)acetic acid] | 6
COC1CCC(C(=O)N2Cc3c(C)c(-c4ccc(C)cc4)c([C@H](OC(C)(C)C)C(=O)O)c(C)c3C2)CC1 (stereo partly drawn) [Example 116, (S)-2-(tert-butoxy)-2-(2-(4-methoxycyclohexanecarbonyl)-4,7-dimethyl-6-(p-tolyl)isoindolin-5-yl)acetic acid] | 31
Cc1ccc(-c2c(C)c3c(c(C)c2[C@H](OC(C)(C)C)C(=O)O)CN(C(=O)CC2CCCCC2)C3)cc1 [Example 117, (S)-2-(tert-butoxy)-2-(2-(2-cyclohexylacetyl)-4,7-dimethyl-6-(p-tolyl)isoindolin-5-yl)acetic acid] | 17
Cc1ccc(-c2c(C)c3c(c(C)c2[C@H](OC(C)(C)C)C(=O)O)CN(C(=O)C2CC4(CCC4)C2)C3)cc1 [Example 118, (S)-2-(tert-butoxy)-2-(4,7-dimethyl-2-(spiro[3.3]heptane-2-carbonyl)-6-(p-tolyl)isoindolin-5-yl)acetic acid] | 14
Cc1ccc(-c2c(C)c3c(c(C)c2[C@H](OC(C)(C)C)C(=O)O)CN(C(=O)c2cc(F)cc(F)c2)C3)cc1 [Example 119, (S)-2-(tert-butoxy)-2-(2-(3,5-difluorobenzoyl)-4,7-dimethyl-6-(p-tolyl)isoindolin-5-yl)acetic acid] | 3
Cc1ccc(-c2c(C)c3c(c(C)c2[C@H](OC(C)(C)C)C(=O)O)CN(C(=O)c2cccc(F)c2F)C3)cc1 [Example 120, (S)-2-(tert-butoxy)-2-(2-(2,3-difluorobenzoyl)-4,7-dimethyl-6-(p-tolyl)isoindolin-5-yl)acetic acid] | 3
Cc1ccc(-c2c(C)c3c(c(C)c2[C@H](OC(C)(C)C)C(=O)O)CN(C(=O)c2cc(F)ccc2C)C3)cc1 [Example 121, (S)-2-(tert-butoxy)-2-(2-(5-fluoro-2-methylbenzoyl)-4,7-dimethyl-6-(p-tolyl)isoindolin-5-yl)acetic acid] | 4
COc1cc(F)cc(C(=O)N2Cc3c(C)c(-c4ccc(C)cc4)c([C@H](OC(C)(C)C)C(=O)O)c(C)c3C2)c1 [Example 122, (S)-2-(tert-butoxy)-2-(2-(3-fluoro-5-methoxybenzoyl)-4,7-dimethyl-6-(p-tolyl)isoindolin-5-yl)acetic acid] | 3
Cc1ccc(-c2c(C)c3c(c(C)c2[C@H](OC(C)(C)C)C(=O)O)CN(C(=O)c2cc(C)cc(F)c2)C3)cc1 [Example 123, (S)-2-(tert-butoxy)-2-(2-(3-fluoro-5-methylbenzoyl)-4,7-dimethyl-6-(p-tolyl)isoindolin-5-yl)acetic acid] | 4
Cc1ccc(-c2c(C)c3c(c(C)c2[C@H](OC(C)(C)C)C(=O)O)CNC3)cc1 [Example 124, (S)-2-(tert-butoxy)-2-(4,7-dimethyl-6-(p-tolyl)isoindolin-5-yl)acetic acid] | 1090
Cc1ccc(-c2c(C)c3c(c(C)c2[C@H](OC(C)(C)C)C(=O)O)CN(Cc2cccc4c2OCCO4)C3)cc1 [Example 125, (S)-2-(tert-butoxy)-2-(2-((2,3-dihydrobenzo[b][1,4]dioxin-5-yl)methyl)-4,7-dimethyl-6-(p-tolyl)isoindolin-5-yl)acetic acid] | 15
Cc1ccc(-c2c(C)c3c(c(C)c2[C@H](OC(C)(C)C)C(=O)O)CN(C(=O)OC(C)(C)C)C3)cc1 [Example 126, (S)-2-(tert-butoxy)-2-(2-(tert-butoxycarbonyl)-4,7-dimethyl-6-(p-tolyl)isoindolin-5-yl)acetic acid] | 13
Cc1ccc(-c2c(C)c3c(c(C)c2[C@H](OC(C)(C)C)C(=O)O)CN(CC(=O)N2CCCCC2)C3)cc1 [Example 127, (S)-2-(tert-butoxy)-2-(4,7-dimethyl-2-(2-oxo-2-(piperidin-1-yl)ethyl)-6-(p-tolyl)isoindolin-5-yl)acetic acid] | 318
Cc1ccc(-c2c(C)c3c(c(C)c2[C@H](OC(C)(C)C)C(=O)O)CN(C(=N)N2CCCCC2)C3)cc1 [Example 128, (S)-2-(tert-butoxy)-2-(2-(imino(piperidin-1-yl)methyl)-4,7-dimethyl-6-(p-tolyl)isoindolin-5-yl)acetic acid] | 8540
Cc1ccc(-c2c(C)c3c(c(C)c2[C@H](OC(C)(C)C)C(=O)O)CN(C(=O)C(=O)N2CCCCC2)C3)cc1 [Example 129] | 14
Cc1ccc(-c2c(C)c3c(c(C)c2[C@H](OC(C)(C)C)C(=O)O)CN(C(=O)C(=O)N2CCOC[C@H]2C)C3)cc1 [Example 130, (S)-2-(tert-butoxy)-2-(4,7-dimethyl-2-(2-((R)-3-methylmorpholino)-2-oxoacetyl)-6-(p-tolyl)isoindolin-5-yl)acetic acid] | 41
Cc1ccc(-c2c(C)c3c(c(C)c2[C@H](OC(C)(C)C)C(=O)O)CN(C(=S)N2CCCCC2)C3)cc1 [Example 131, (S)-2-(tert-butoxy)-2-(4,7-dimethyl-2-(piperidine-1-carbonothioyl)-6-(p-tolyl)isoindolin-5-yl)acetic acid] | 19
Cc1c2c(c(C)c([C@H](OC(C)(C)C)C(=O)O)c1-c1ccc(Cl)cc1)CN(C(=O)N1CCCCC1)C2 [Example 132, (S)-2-(tert-butoxy)-2-(6-(4-chlorophenyl)-4,7-dimethyl-2-(piperidine-1-carbonyl)isoindolin-5-yl)acetic acid] | 21
Cc1c2c(c(C)c([C@H](OC(C)(C)C)C(=O)O)c1-c1ccc(Cl)cc1)CN(C(=O)C1CCCCC1)C2 [Example 134, (S)-2-(tert-butoxy)-2-(6-(4-chlorophenyl)-2-(cyclohexanecarbonyl)-4,7-dimethylisoindolin-5-yl)acetic acid] | 6
Cc1c2c(c(C)c([C@H](OC(C)(C)C)C(=O)O)c1-c1ccc(Cl)cc1)CN(C(=O)CC(C)(C)C)C2 [Example 135, (S)-2-(tert-butoxy)-2-(6-(4-chlorophenyl)-2-(3,3-dimethylbutanol)-4,7-dimethylisoindolin-5-yl)acetic acid] | 23
